Laboratory results taken from PubChem BioAssay (NCI).
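The compound was tested at five concentrations on cells cultured in 96-well plates, with a 48-hour exposure period. The concentration for 50% growth inhibition is given as GI50. The concentration for full growth arrest is given as TGI.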

Experiments:
Assay in all cases: NCI tumour cell line growth inhibition, 48 h
[1] = test system: 786-0 renal
[2] = test system: CAKI-1 renal
[3] = test system: DU-145 prostate
[4] = test system: HOP-62 NSCLC
[5] = test system: M14 melanoma
[6] = test system: MDA-MB-435
[7] = test system: NCI-H522 lung
[8] = test system: OVCAR-3 ovarian
[9] = test system: SK-MEL-5 melanoma
[10] = test system: TK-10 renal

Row | Structure (SMILES) | GI50 [1] | TGI [1] | GI50 [2] | TGI [2] | GI50 [3] | TGI [3] | GI50 [4] | TGI [4] | GI50 [5] | TGI [5] | GI50 [6] | TGI [6] | GI50 [7] | TGI [7] | GI50 [8] | TGI [8] | GI50 [9] | TGI [9] | GI50 [10] | TGI [10]
1 | COc1cccc2c1C(=O)c1c(O)c3c(c(O)c1C2=O)C[C@](O)(C(=O)CO)C[C@H]3O[C@@H]1C[C@@H](NC(=O)CCCCCN(C)C2(c3ccc(F)cc3)CC3CCC2C3)[C@H](O)[C@@H](C)O1 (some centres not stated) | 0.82 µM | 1.61 µM | 6.82 µM | 13.3 µM | 1.13 µM | 4.24 µM | 2.03 µM | 10 µM | 3.48 µM | 14.3 µM | 8.67 µM | 19.4 µM | 0.707 µM | 1.57 µM | 1.41 µM | 4.27 µM | 7.65 µM | 15.6 µM | 0.611 µM | 1.28 µM
2 | CC(=O)OC12C=CC(=O)N1c1ccccc1C(=O)O2 (configuration not stated) | – | > 100 µM | – | > 100 µM | > 100 µM | > 100 µM | – | > 100 µM | – | > 100 µM | > 100 µM | > 100 µM | – | > 100 µM | – | > 100 µM | – | > 100 µM | – | > 100 µM
3 | Oc1cccnc1[Se] | – | 31.7 µM | – | > 100 µM | – | > 100 µM | – | 64.7 µM | – | 67.9 µM | – | > 100 µM | – | > 100 µM | – | > 100 µM | – | > 100 µM | – | > 100 µM
4 | C#C[C@]1(O)CCC2C3CCc4cc(O)ccc4C3CC[C@@]21C (some centres not stated) | 5.08 µM | 21.9 µM | 9.15 µM | 87 µM | 6.71 µM | 23.5 µM | 4.34 µM | 16.6 µM | 3.87 µM | 13.5 µM | 0.628 µM | 9.59 µM | 3.47 µM | 20.5 µM | 3.14 µM | 8.43 µM | 2.24 µM | 7.6 µM | 10.3 µM | > 100 µM
5 | Nc1nc(/C=C\c2ccc([N+](=O)[O-])s2)nc(N2CCCC2)n1 | 10.8 µM | 23.6 µM | 7.1 µM | 24.6 µM | 2.47 µM | 16.4 µM | 13.5 µM | 26.7 µM | 3.72 µM | 17.1 µM | 2.24 µM | 8.09 µM | 2.55 µM | 8.67 µM | 3.49 µM | 12.2 µM | 9.66 µM | 22.5 µM | 6.27 µM | 20.9 µM
6 | C=C(C)[C@@H]1CC[C@]2(C)[C@H](CC=C3[C@@H]4CC(C)(C)CC[C@]4(C(N)=O)CC[C@]32C)[C@@]1(C)CCC#N | 2 µM | 4.12 µM | 3.01 µM | > 100 µM | 4.8 µM | > 100 µM | 7.44 µM | > 100 µM | 3.11 µM | > 100 µM | 3.21 µM | 20.5 µM | 3.07 µM | > 100 µM | 3.49 µM | > 100 µM | 1.83 µM | 3.31 µM | 7.32 µM | > 100 µM
7 | O=C(CC1(O)C(=O)N(Cc2ccccc2)c2ccc(F)cc21)c1ccc(C(=O)NCC2CCC3(CC2)OOC2(CCCCC2)OO3)cc1 (configuration not stated) | 0.18 µM | 0.344 µM | 0.464 µM | 0.954 µM | 0.187 µM | 0.335 µM | 0.179 µM | 0.382 µM | 2.02 µM | 6.63 µM | 0.468 µM | 1.42 µM | 0.187 µM | 0.396 µM | 0.254 µM | 0.634 µM | 1.54 µM | 2.96 µM | 0.191 µM | 0.413 µM
8 | O=C1C=CC(=O)c2cc3cc(CBr)ccc3cc21 | 2.28 µM | 5.24 µM | 2.34 µM | 6.25 µM | 2.35 µM | 6.54 µM | 16 µM | 37.8 µM | 8.58 µM | 23.4 µM | 11.8 µM | 33.7 µM | 4.33 µM | > 25.8 µM | 7.43 µM | > 21.8 µM | 14.9 µM | 36 µM | 3.54 µM | 16.7 µM
9 | C=CCCCCOc1ccccc1-c1cnc(OCCCCC=C)n1C | 5.29 µM | 21.3 µM | 4.36 µM | 23.8 µM | 5.68 µM | 22.3 µM | 5.13 µM | 20.6 µM | 2.88 µM | 14.6 µM | 2.08 µM | 5.22 µM | 2.59 µM | 6.72 µM | 3.21 µM | 10.1 µM | 3.69 µM | 13.7 µM | 3.5 µM | 23 µM
10 | COc1cc2c(c(OC)c1OC)-c1ccc(SC)c(=O)cc1C(NC=O)CC2 (configuration not stated) | – | > 100 µM | – | > 83 µM | – | < 0.01 µM | – | > 90.8 µM | – | > 21.5 µM | – | < 0.01 µM | – | < 0.01 µM | – | 2.33 µM | – | < 0.01 µM | – | > 100 µM
